A short description of series [1]: Molar enthalpy of transition or fusion. Conditions: Crystal; DSC.
For series [2] the following is noted: Crystal; DTA.

One compound from the NIST ThermoML archive (doi:10.1016/j.jct.2016.10.020) can be followed below.

Numbers after ± are expanded uncertainties.

Take `COc1cc(Cl)nc(N)n1` [2-amino-4-chloro-6-methoxypyrimidine]: in series [1], the “Molar enthalpy of transition or fusion” value was found to be 5.93 ± 0.239 kcal/mol. The Normal melting temperature in series [2] came out at 173.80 ± 1.1 °C.
